These results are taken from patent publication US10960054B2, “Fracture targeted bone regeneration through parathyroid hormone receptor stimulation” (Purdue Research Foundation, priority 2016, dated 2021).

The subject of one data set is femoral fracture callus. Put plainly: Murine stabilized femoral fracture, microCT analysis of fracture callus. To be noted: for fracture callus densities / bone volume: 3 nmol/kg/day subcutaneous, 14, 28 or 56 days, FIG. 7. Type of data set: in vivo, mice.
For another data set, the system named is MC3T3E1 cells. The data set can be described thus: Gene expression ratio of bone markers in MC3T3E1 cells. Type of data set: cell-based. As to the method:
Referring now to FIG. 4, alkaline phosphatase (ALP) expression ratio for both targeted and non-targeted PTHrP were analyzed in MC3T3E1 cells. The ALP ratio is calculated by (Treated ALP expression/Vehicle control ALP expression). Higher expression levels are associated with greater osteoblast activity and is a key protein involved in bone mineralization.
Referring now to FIG. 5, osteopontin (OPN) expression ratio for both targeted and non-targeted PTHrP were analyzed in MC3T3E1 cells. The OPN ratio is calculated by (Treated OPN expression/Vehicle control OPN expression). Higher expression levels are associated with greater osteoblast activity and is a key protein involved in bone mineralization.
Referring now to FIG. 6, gene expression ratio of several key bone markers for both targeted and non-targeted PTHrP were analyzed in MC3T3E1 cells. Activity markers include alkaline phosphatase (ALP), Collagen I-alpha (Col1-alpha), osteocalcin (OC), osteoprotegerin (OPG), osteopontin (OPN, and Osterix (OSX). The gene expression ratio is calculated by (Treated gene expression/Vehicle control gene expression). The targeted PTHrP has activity as low as 1 pM.

The next data set relates to liver and kidneys. Put plainly: Blind histopathology of liver and kidney after 28 days of treatment. The note with it: 31 nmol/kg/day subcutaneous.
Another data set has as its target T1, PTHR1 (R^0 conformation) (Homo sapiens, UniProt Q03431).
T1 sequence (Q03431 27-593): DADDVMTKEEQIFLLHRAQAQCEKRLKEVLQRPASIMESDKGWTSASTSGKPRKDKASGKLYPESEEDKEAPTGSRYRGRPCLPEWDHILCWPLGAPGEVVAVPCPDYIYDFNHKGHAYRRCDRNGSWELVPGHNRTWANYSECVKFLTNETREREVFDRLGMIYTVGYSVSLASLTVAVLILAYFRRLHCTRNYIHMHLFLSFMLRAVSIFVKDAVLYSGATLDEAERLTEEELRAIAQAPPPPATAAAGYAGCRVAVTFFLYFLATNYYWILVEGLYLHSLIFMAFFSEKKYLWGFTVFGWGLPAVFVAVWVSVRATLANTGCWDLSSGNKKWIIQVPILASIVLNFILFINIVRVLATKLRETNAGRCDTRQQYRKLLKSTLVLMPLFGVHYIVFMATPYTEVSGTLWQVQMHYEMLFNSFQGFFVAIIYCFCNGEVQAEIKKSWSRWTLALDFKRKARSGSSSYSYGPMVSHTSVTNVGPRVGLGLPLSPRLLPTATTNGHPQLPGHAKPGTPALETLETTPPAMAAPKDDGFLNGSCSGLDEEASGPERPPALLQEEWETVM
To be noted: direct comparative studies; cited from earlier work.

A further data set addresses T2, PTHR1 (Homo sapiens, UniProt Q03431).
T2 sequence (Q03431 27-593): T1 sequence (Q03431 27-593)
The note with it: time-course washout assay; cited from earlier work.

Where only a bound is given, the exact number is not on record here.

Description for liver and kidneys: Referring now to Table 1, mice were treated with 31 nmol/kg/day subcutaneous injections of PTHrPD10 (“Targeted Drug”) or saline. Swiss ND4 mice were treated for 28 days. Mice were sacrificed at the end of the study and liver and kidneys were excised. Organs were fixed in formalin and paraffin sections were made from each. A veterinary pathologist performed a randomized blind analysis on the organs.

Consider “VSEHQLLHDKGKSIQDLRRRFFLHHLIAEIHTAGIRATSEVSPNSDDDDDDDDDD [PTHrP1-46D10]”, for which the “fracture callus densities / bone volume” value is “Greater densities can be observed in the targeted PTHrP over the free PTHrp at every time point” with femoral fracture callus (listed as targeted PTHrP) and “not only improves fracture healing but that it also accelerates fracture healing” with femoral fracture callus (listed as targeted drug). Further, the “bone densities around fractures (microCT)” value with femoral fracture callus (31 nmol/kg/day, daily for 4 weeks, closed femoral fracture, FIG. 1) was “increased bone densities around fractures significantly higher than that of free PTHrP and Saline”. The “trabecular spacing (microCT)” value in the data set with femoral fracture callus (4 weeks, fracture callus, vs saline, FIG. 2) is reported as “statistically tighter spacing than does the saline control”. The “concentration at which gene expression activity is seen (activity as low as)” value in the data set with MC3T3E1 cells (ALP, Col1-alpha, OC, OPG, OPN, OSX, FIG. 6) is not above 1 pM. Besides, the “osteopontin (OPN) expression ratio” value with MC3T3E1 cells (treated/vehicle control, FIG. 5) is “does not reduce the efficacy of the drug”. Moreover, in the data set on MC3T3E1 cells (treated/vehicle control, standardized to GAPDH, FIG. 4), the “alkaline phosphatase (ALP) expression ratio” value is given as “does not reduce the efficacy of the drug”. Also, the “toxicity, overall pathologist assessment of liver and kidney” value in the data set on liver and kidneys was “No detectable toxicity was observed”.

Regarding “SVSEIQLMHNLGKHLNSMERVEWLRKKLQDVHNF [PTH(1-34)]”, in the data set with PTHR1 (R^0 conformation), the “affinity for the R^0 state” value is recorded as “much higher affinity for R^0 than PTHrP(1-36)”. Also, in the data set with PTHR1, the “duration of the cAMP response” value is listed as “more prolonged response than PTHrP(1-36)”.

Regarding “SVSEIQLMHNLGKHLNSMERVEWLRKKLQDVHNFVALGAPLAPRDADDDDDDDDDD (PTH1-46D10) [PTH 1-46D10]”, the “bone density (microCT)” value in the data set on femoral fracture callus (2 weeks, fracture callus, vs saline, FIG. 3) was “statistically denser than saline controls”.
